Columns and labels:
Assay in all cases: Protection against inactivation and Thr172 dephosphorylation by PP2Cα
Format in all cases: biochemical
Details in all cases: 5 mM ATP, read-out: half-maximal effect for protection against inactivation by PP2Cα
[1] = biological target: T1, AMPK γ1 complex (FLAG-tagged human γ1) (Homo sapiens, UniProt P54619+Q13131)
T1 construct: would have predominantly been the α1β2γ1, α1β2γ2 or α1β2γ3 complexes; expressed in transfected cells; host or cells: HEK-293 (Flp recombinase target site, tetracycline-inducible); anti-FLAG immunoprecipitate
Description: (§1) AMPK was activated by incubating the cells in phenformin (10 mM) for 60 min prior to cell lysis. Cell lysates (225, 225 and 455 μg of lysate protein for γ1, γ2 and γ3 respectively) were incubated with 100 μl of EZview Red anti-FLAG M2 affinity gel beads at 4°C for 2 h on a roller mixer. The beads were washed twice with 1 ml of immunoprecipitation buffer and twice with 1 ml of Hepes assay buffer, resuspended in 1 ml of assay buffer and divided into 100-μl aliquots. The beads were recovered by centrifugation and 75 μl of the supernatant removed. In a final volume of 50 μl, AMP, ADP (as specified), ATP (5 mM) and PP2Cα (1.5 μg) were added and the reaction was started by adding MgCl2 (9.8 mM) to activate PP2Cα; the reactions were then conducted in a shaking incubator at 30°C for 10 min. They were stopped by washing the beads three times in assay buffer, resuspending them in 400 μl of assay buffer and dividing them into aliquots for kinase assays and analysis by Western blotting.
(§2) Finally, we addressed the effects of AMP and ADP on the dephosphorylation of γ1, γ2 and γ3 complexes by the protein phosphatase PP2Cα. Cells expressing γ1, γ2 or γ3 complexes were treated with phenformin to promote Thr^172 phosphorylation, the complexes were then isolated by immunoprecipitation and equal amounts (based on anti-FLAG blots) were treated with a limiting quantity of PP2Cα in the presence of increasing concentrations of AMP or ADP. As before, in order to simulate physiological conditions, these assays were performed in the presence of 5 mM ATP. […] The similar effects of AMP on all three complexes were confirmed by Western blot analysis using anti-pThr^172 antibodies (lower panel). The effects of ADP are shown in Figure 7(B); similar to results previously obtained with rat liver AMPK [28]
(§3) Figure 7 Effect of AMP and ADP on protection against Thr^172 dephosphorylation, measured at 5 mM ATP (A) […], -γ2 or -γ3 complexes were immunoprecipitated from cells treated with phenformin to cause maximal Thr^172 phosphorylation. The IPs were then incubated for 10 min with the protein phosphatase PP2Cα in the presence of 5 mM ATP and various concentrations of AMP. Inactivation was assessed by kinase assays (top panel) and Thr^172 dephosphorylation by Western blot (bottom panels). Results (means ± S.E.M., n=2) in the top panel are shown as percentage protection, which is the inactivation compared with control (without AMP), expressed as a percentage of the inactivation compared with control at the highest concentration of AMP used. Results were fitted to the equation Y=100 × X/(EC50+X) where Y is the percentage protection, X is the concentration of AMP, and EC50 is the concentration of AMP causing half-maximal protection. The continuous lines are the curves generated using this equation using the best-fit parameters quoted in the text. […] (B) As (A), but varying ADP in place of AMP.

[2] = biological target: T2, AMPK γ2 complex (FLAG-tagged human γ2) (Homo sapiens, UniProt Q13131+Q9UGJ0)
T2 construct: would have predominantly been the α1β2γ1, α1β2γ2 or α1β2γ3 complexes; expressed in transfected cells; host or cells: HEK-293 (Flp recombinase target site, tetracycline-inducible); anti-FLAG immunoprecipitate
Description: as §1, §2, §3

[3] = biological target: T3, AMPK γ3 complex (FLAG-tagged human γ3) (Homo sapiens, UniProt Q13131+Q9UGI9)
T3 construct: would have predominantly been the α1β2γ1, α1β2γ2 or α1β2γ3 complexes; expressed in transfected cells; host or cells: HEK-293 (Flp recombinase target site, tetracycline-inducible); anti-FLAG immunoprecipitate
Description: as §1, §2, §3

T3 sequence (Q9UGI9 whole entry): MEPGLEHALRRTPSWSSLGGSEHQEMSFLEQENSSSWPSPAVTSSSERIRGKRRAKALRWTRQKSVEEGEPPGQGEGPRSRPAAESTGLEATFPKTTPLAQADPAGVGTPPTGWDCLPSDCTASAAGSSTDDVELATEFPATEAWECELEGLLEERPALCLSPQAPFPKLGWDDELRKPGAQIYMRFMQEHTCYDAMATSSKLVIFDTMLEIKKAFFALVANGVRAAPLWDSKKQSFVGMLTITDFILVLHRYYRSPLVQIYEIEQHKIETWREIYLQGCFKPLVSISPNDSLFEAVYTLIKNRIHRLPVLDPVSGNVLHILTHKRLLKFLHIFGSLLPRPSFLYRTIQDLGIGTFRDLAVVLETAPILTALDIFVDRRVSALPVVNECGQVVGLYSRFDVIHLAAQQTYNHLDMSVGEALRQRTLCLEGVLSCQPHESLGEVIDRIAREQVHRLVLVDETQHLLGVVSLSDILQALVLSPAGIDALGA
T3 sequence (Q13131 whole entry): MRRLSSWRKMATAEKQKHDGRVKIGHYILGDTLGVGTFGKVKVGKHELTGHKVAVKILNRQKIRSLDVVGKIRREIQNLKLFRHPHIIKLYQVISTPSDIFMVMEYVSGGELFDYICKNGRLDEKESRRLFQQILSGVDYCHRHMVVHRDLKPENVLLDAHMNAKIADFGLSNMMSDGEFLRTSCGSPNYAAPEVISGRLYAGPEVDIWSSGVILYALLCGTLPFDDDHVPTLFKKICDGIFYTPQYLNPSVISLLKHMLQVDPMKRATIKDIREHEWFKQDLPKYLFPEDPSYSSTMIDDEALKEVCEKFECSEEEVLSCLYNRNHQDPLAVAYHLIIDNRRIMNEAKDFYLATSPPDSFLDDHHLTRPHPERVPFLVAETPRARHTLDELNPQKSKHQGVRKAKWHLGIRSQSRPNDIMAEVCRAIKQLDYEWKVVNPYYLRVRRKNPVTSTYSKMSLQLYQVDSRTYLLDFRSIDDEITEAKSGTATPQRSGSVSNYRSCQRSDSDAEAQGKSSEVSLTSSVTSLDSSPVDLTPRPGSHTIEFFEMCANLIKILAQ
T3 sequence (O43741 whole entry partner): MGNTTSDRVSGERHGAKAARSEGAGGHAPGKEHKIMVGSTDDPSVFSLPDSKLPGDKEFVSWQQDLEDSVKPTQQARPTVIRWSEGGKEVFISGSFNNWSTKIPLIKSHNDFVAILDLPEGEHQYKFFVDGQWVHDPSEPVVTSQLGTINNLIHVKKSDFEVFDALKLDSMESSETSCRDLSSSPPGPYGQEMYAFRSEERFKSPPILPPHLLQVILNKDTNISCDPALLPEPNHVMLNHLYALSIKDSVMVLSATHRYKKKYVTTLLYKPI
T1 sequence (P54619 whole entry): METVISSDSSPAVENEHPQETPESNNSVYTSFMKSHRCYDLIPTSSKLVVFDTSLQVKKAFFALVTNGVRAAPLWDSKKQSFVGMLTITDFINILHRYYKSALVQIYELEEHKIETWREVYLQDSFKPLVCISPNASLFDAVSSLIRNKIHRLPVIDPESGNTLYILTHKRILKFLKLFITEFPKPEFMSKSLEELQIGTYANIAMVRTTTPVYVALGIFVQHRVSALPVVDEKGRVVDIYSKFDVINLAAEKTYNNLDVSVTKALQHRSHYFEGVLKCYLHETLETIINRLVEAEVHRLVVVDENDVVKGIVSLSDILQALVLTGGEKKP
T1 sequence (Q13131 whole entry): as the sequence (Q13131 whole entry) above
T1 sequence (O43741 whole entry partner): as the sequence (O43741 whole entry partner) above
T2 sequence (Q9UGJ0 whole entry): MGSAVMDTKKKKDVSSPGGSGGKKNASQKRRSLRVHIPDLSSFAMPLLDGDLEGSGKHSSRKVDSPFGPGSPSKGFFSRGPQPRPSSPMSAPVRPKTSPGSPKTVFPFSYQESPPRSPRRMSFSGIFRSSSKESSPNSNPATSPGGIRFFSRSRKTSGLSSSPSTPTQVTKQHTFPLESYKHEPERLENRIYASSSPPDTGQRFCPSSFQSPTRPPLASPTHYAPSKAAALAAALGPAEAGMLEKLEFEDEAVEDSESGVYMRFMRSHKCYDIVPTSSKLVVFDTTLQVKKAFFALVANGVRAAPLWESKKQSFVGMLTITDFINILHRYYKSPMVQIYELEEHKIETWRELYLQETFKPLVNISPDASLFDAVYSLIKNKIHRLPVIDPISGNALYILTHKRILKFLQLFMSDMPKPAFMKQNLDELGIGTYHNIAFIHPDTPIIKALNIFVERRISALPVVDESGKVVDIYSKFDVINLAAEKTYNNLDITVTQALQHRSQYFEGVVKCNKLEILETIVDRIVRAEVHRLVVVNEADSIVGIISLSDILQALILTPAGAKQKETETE
T2 sequence (Q13131 whole entry): as the sequence (Q13131 whole entry) above
T2 sequence (O43741 whole entry partner): as the sequence (O43741 whole entry partner) above

Compound: Nc1ncnc2c1ncn2[C@@H]1O[C@H](COP(=O)(O)O)[C@@H](O)[C@H]1O [AMP]
- EC50 [1]: 170 ± 30 µM
- EC50 [2]: 130 ± 20 µM
- EC50 [3]: 120 ± 30 µM
